Experimental findings from US10150760B2, “Compounds for use in preparing heterocyclic triazole agonists of the APJ receptor” (AMGEN INC., priority 2016, dated 2018) are described below.

Chain of human APJ receptor (P35414 whole entry): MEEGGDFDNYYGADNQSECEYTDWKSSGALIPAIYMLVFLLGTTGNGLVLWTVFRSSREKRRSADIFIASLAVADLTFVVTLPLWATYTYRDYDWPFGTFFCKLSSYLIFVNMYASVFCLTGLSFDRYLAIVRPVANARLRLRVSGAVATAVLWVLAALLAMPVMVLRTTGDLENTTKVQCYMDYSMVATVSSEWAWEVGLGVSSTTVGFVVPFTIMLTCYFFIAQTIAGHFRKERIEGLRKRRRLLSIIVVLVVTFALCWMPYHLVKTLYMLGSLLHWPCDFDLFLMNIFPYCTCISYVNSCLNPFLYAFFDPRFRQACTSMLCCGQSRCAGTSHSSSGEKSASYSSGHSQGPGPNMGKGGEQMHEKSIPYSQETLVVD

The experiment has as its target human APJ receptor (Homo sapiens (Human), UniProt P35414). Description: [35S]GTPγS binding assay on membranes from CHO cells stably expressing human APJ receptor. As to conditions: read-out: Activity hAPJ SPA EC50 IP. It is filed as biochemical. A digest of the protocol:
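Agonist-driven [35S]GTPγS (0.2 nM) binding was measured over 90 min at room temperature on human APJ-expressing CHO membranes with bead capture, in buffer containing 3 μM GDP, 200 mM NaCl and 5 mM MgCl2 (pH 7.5). Excess unlabelled GTPγS (100 μM) gave nonspecific signal; EC50 from non-linear fits.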
A general note: GTPγS resists hydrolysis and so accumulates on activated G proteins.
The term EC50 denotes the concentration at which the effect is half-maximal. For the molecule `COCCn1c(NS(=O)(=O)[C@@H](C)[C@H](OC)c2ncc(Cl)cn2)nnc1[C@H]1CCC(C)(C)O1` (single isomer, unassigned) [Example 287.0, (1R,2S)-1-(5-chloropyrimidin-2-yl)-N-(5-((R)-5,5-dimethyltetrahydrofuran-2-yl)-4-(2-methoxyethyl)-4H-1,2,4-triazol-3-yl)-1-methoxypropane-2-sulfonamide or (1R,2S)-1-(5-chloropyrimidin-2-yl)-N-(5-((S)-5,5-dimethyltetrahydrofuran-2-yl)-4-(2-methoxyethyl)-4H-1,2,4-triazol-3-yl)-1-methoxypropane-2-sulfonamide], the concentration for a half-maximal effect (EC50) turned out to be 860 nM.
Next, `COCCn1c(NS(=O)(=O)[C@@H](C)[C@H](OC)c2ncc(Cl)cn2)nnc1[C@H]1CCC(C)(C)O1` (single isomer, unassigned) [Example 288.0, (1R,2S)-1-(5-chloropyrimidin-2-yl)-N-(5-((R)-5,5-dimethyltetrahydrofuran-2-yl)-4-(2-methoxyethyl)-4H-1,2,4-triazol-3-yl)-1-methoxypropane-2-sulfonamide or (1R,2S)-1-(5-chloropyrimidin-2-yl)-N-(5-((S)-5,5-dimethyltetrahydrofuran-2-yl)-4-(2-methoxyethyl)-4H-1,2,4-triazol-3-yl)-1-methoxypropane-2-sulfonamide]: 410 nM; `COCC1(n2c(NS(=O)(=O)[C@@H](C)[C@H](OC)c3ncc(Cl)cn3)nnc2[C@H]2CCC(C)(C)O2)CC1` (single isomer, unassigned) [Example 289.0, (1R,2S)-1-(5-chloropyrimidin-2-yl)-N-(5-((R)-5,5-dimethyltetrahydrofuran-2-yl)-4-(1-(methoxymethypcyclopropyl)-4H-1,2,4-triazol-3-yl)-1-methoxypropane-2-sulfonamide or (1R,2S)-1-(5-chloropyrimidin-2-yl)-N-(5-((S)-5,5-dimethyltetrahydrofuran-2-yl)-4-(1-(methoxymethypcyclopropyl)-4H-1,2,4-triazol-3-yl)-1-methoxypropane-2-sulfonamide]: 1100 nM.
For the molecule `COCC1(n2c(NS(=O)(=O)[C@@H](C)[C@H](OC)c3ncc(Cl)cn3)nnc2[C@H]2CCC(C)(C)O2)CC1` (single isomer, unassigned) [Example 290.0, (1R,2S)-1-(5-chloropyrimidin-2-yl)-N-(5-((R)-5,5-dimethyltetrahydrofuran-2-yl)-4-(1-(methoxymethypcyclopropyl)-4H-1,2,4-triazol-3-yl)-1-methoxypropane-2-sulfonamide or (1R,2S)-1-(5-chloropyrimidin-2-yl)-N-(5-((S)-5,5-dimethyltetrahydrofuran-2-yl)-4-(1-(methoxymethyl)cyclopropyl)-4H-1,2,4-triazol-3-yl)-1-methoxypropane-2-sulfonamide], the EC50 came out at 23 nM.
As for `COc1ncnc(OC)c1-n1c(NS(=O)(=O)[C@@H](C)[C@@H](OC(C)C)c2ncc(Cl)cn2)nnc1[C@H]1CCOC1` (single isomer, unassigned) [Example 291.0, (1S,2S)-1-(5-chloropyrimidin-2-yl)-N-(4-(4,6-dimethoxypyrimidin-5-yl)-5-((R)-tetrahydrofuran-3-yl)-4H-1,2,4-triazol-3-yl)-1-isopropoxypropane-2-sulfonamide or (1S,2S)-1-(5-chloropyrimidin-2-yl)-N-(4-(4,6-dimethoxypyrimidin-5-yl)-5-((S)-tetrahydrofuran-3-yl)-4H-1,2,4-triazol-3-yl)-1-isopropoxypropane-2-sulfonamide], the EC50 was 5.2 nM.
Regarding `COc1ncnc(OC)c1-n1c(NS(=O)(=O)[C@@H](C)[C@@H](OC(C)C)c2ncc(Cl)cn2)nnc1[C@H]1CCOC1` (single isomer, unassigned) [Example 292.0, (1S,2S)-1-(5-chloropyrimidin-2-yl)-N-(4-(4,6-dimethoxypyrimidin-5-yl)-5-((R)-tetrahydrofuran-3-yl)-4H-1,2,4-triazol-3-yl)-1-isopropoxypropane-2-sulfonamide or (1S,2S)-1-(5-chloropyrimidin-2-yl)-N-(4-(4,6-dimethoxypyrimidin-5-yl)-5-((S)-tetrahydrofuran-3-yl)-4H-1,2,4-triazol-3-yl)-1-isopropoxypropane-2-sulfonamide], the EC50 turned out to be 18 nM.
`COc1cccc(OC)c1-n1c(NS(=O)(=O)[C@@H](C)[C@H](OC)c2ncc(Cl)cn2)nnc1[C@H]1CC(=O)N(C)C1` (single isomer, unassigned) [Example 293.0, (1R,2S)-1-(5-chloropyrimidin-2-yl)-N-(4-(2,6-dimethoxyphenyl)-5-((R)-1-methyl-5-oxopyrrolidin-3-yl)-4H-1,2,4-triazol-3-yl)-1-methoxypropane-2-sulfonamide or (1R,2S)-1-(5-chloropyrimidin-2-yl)-N-(4-(2,6-dimethoxyphenyl)-5-((S)-1-methyl-5-oxopyrrolidin-3-yl)-4H-1,2,4-triazol-3-yl)-1-methoxypropane-2-sulfonamide]: the EC50 is 100 nM.
Regarding `COc1cccc(OC)c1-n1c(NS(=O)(=O)[C@@H](C)[C@H](OC)c2ncc(Cl)cn2)nnc1[C@@H]1CC(=O)N(C)C1` (single isomer, unassigned) [Example 294.0, (1R,2S)-1-(5-chloropyrimidin-2-yl)-N-(4-(2,6-dimethoxyphenyl)-5-((R)-1-methyl-5-oxopyrrolidin-3-yl)-4H-1,2,4-triazol-3-yl)-1-methoxypropane-2-sulfonamide or (1R,2S)-1-(5-chloropyrimidin-2-yl)-N-(4-(2,6-dimethoxyphenyl)-5-((S)-1-methyl-5-oxopyrrolidin-3-yl)-4H-1,2,4-triazol-3-yl)-1-methoxypropane-2-sulfonamide], the EC50 worked out at 270 nM.
As for `CO[C@H](c1ncc(Cl)cn1)[C@H](C)S(=O)(=O)Nc1nnc([C@H]2CCOC2)n1C(C)C` (single isomer, unassigned) [Example 297.0, (1R,2S)-1-(5-chloropyrimidin-2-yl)-N-(4-isopropyl-5-((R)-tetrahydrofuran-3-yl)-4H-1,2,4-triazol-3-yl)-1-methoxypropane-2-sulfonamide or (1R,2S)-1-(5-chloropyrimidin-2-yl)-N-(4-isopropyl-5-((S)-tetrahydrofuran-3-yl)-4H-1,2,4-triazol-3-yl)-1-methoxypropane-2-sulfonamide], the figure is 1470 nM.
As for `CO[C@H](c1ncc(Cl)cn1)[C@H](C)S(=O)(=O)Nc1nnc([C@H]2CCOC2)n1C(C)C` (single isomer, unassigned) [Example 298.0, (1R,2S)-1-(5-chloropyrimidin-2-yl)-N-(4-isopropyl-5-((R)-tetrahydrofuran-3-yl)-4H-1,2,4-triazol-3-yl)-1-methoxypropane-2-sulfonamide or (1R,2S)-1-(5-chloropyrimidin-2-yl)-N-(4-isopropyl-5-((S)-tetrahydrofuran-3-yl)-4H-1,2,4-triazol-3-yl)-1-methoxypropane-2-sulfonamide], the figure is 1890 nM.
